Legend:
[1] = system: Crz1p nuclear localization (calcineurin pathway) in WT-P2X2 strain; experiment: GFP-Crz1p nuclear localization in P2X2 yeast after ATP injection; type: cell-based, S. cerevisiae; details: five minutes after ATP injection, 200 μM ATP (f.c.)
Description: As further validation of P2X2 function in yeast, we sought to investigate whether P2X2 could trigger the calcineurin pathway, which is a native pathway controlled by calcium. After intracellular calcium levels rise, calcineurin regulates the nuclear localization of transcription factor Crz1p ([27]). To test if unnatural ion channels could activate this pathway, a GFP-tagged Crz1p was co-expressed with P2X2 in yeast. […] The degree of nuclear localization was double that of a negative control mutant P2X receptor.
Yeast strains EG.y156 WT-P2X2 or EG.y66 broken-P2X2 were transformed with EG.B723 GFP-tagged Crz1p. Yeast were cultured and induced as previously described. Cells were loaded onto a cell imaging microplate (Eppendorf, cat. no. 0030741030) that was pre-treated with Poly-D-lysine (50 μg/ml). Cells (50 μl) were attached to the plate for 30 min at room temperature, and wells were then gently washed three times with media to remove non-adherent cells. Cells were resuspended in 100 μl and imaged on a Cytation 5 Cell Imaging Multi-Mode reader. Cells were imaged before injection with the appropriate substrate, immediately after injection, and 5 or 10 min after injection. […] Nuclear localization events were automatically counted in Ilastik (https://www.ilastik.org/). Percent nuclear localization was counted as nuclear localization events divided by total cells.

P2X2 A304F = molecular target: T1, P2X2 A304F (Homo sapiens, UniProt Q9UBL9, A304F); experiment: Site-saturation screen of ligand-binding domain with ATP, A304F; type: cell-based; details: 500 μM ATP, ± sd
T1 construct: expressed in transfected cells; host or cells: Saccharomyces cerevisiae BY4741 derivative, genome-integrated, galactose-inducible
T1 sequence (Q9UBL9 whole entry A304F, the tested form may be a part): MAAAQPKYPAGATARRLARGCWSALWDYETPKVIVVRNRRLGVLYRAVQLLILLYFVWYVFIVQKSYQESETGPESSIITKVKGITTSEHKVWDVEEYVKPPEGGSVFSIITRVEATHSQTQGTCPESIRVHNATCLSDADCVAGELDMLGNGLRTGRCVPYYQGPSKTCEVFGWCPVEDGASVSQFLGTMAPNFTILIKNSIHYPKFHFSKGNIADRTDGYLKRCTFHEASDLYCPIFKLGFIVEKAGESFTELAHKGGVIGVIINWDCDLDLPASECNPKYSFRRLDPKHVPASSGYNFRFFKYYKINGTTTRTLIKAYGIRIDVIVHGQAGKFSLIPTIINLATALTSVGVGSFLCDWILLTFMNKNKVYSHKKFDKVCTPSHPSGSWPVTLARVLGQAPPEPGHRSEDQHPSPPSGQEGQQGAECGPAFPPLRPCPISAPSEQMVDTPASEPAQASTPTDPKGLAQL
Description: (§1) The yeast P2X2 screening platform poses an opportunity to probe the structure-function of the ligand-binding domain in detail. The conserved P2X “NFR” motif at residues 300 to 302 is directly involved in bonding to the ATP triphosphate moiety ([41]), so we mutagenized residues at or near this motif (298–304), ultimately covering 133 variants (7 sites, 19 residues each). […] We compared our results to phylogenetic data based on a multiple sequence alignment (MSA) from a curated set of 419 related P2X homologs (Figs. 3B, and S5; Table S1).
(§2) Figure 3 Structure-function analysis of the ligand binding domain.A, heat map summarizing the screening data of ATP with seven site-saturation libraries surrounding the NFR-motif. B, sequence-logo plot of the mutagenized residues and percent identity scores as determined from MSA. C, homology model of P2X2 colored by sequence conservation as calculated from a multiple sequence alignment of 419 related P2X genes. Conservation is scored on a log scale where maroon is more conserved and blue is less conserved. D, ATP in the ligand-binding pocket of P2X2. […]
(§3) GCaMP assays were performed as follows. […] Cells were loaded onto a black, clear bottom microplate and imaged on a FlexStation3 plate reader. […] Fluorescence was measured with an excitation at 485 nm, and emission 525 nm. […] For strains with mScarlet, fluorescence was read with excitation 570 nm/emission 610 nm. […]

P2X2 R302 lysine (R302K) = molecular target: T2, P2X2 R302 lysine (R302K) (Homo sapiens, UniProt Q9UBL9, R302K); experiment: Site-saturation screen of ligand-binding domain with ATP, R302 lysine; type: cell-based; details: 500 μM ATP, ± sd
T2 construct: expressed in transfected cells; host or cells: S. cerevisiae BY4741 background
T2 sequence (Q9UBL9 whole entry R302K, the tested form may be a part): as the sequence (Q9UBL9 whole entry A304F, the tested form may be a part) above, with R302K, F304A counted along it
Description: as §1, §2, §3

Nc1ncnc2c1ncn2[C@@H]1O[C@H](COP(=O)(O)OP(=O)(O)OP(=O)(O)O)[C@@H](O)[C@H]1O [ATP]
degree of Crz1p nuclear localization relative to negative control mutant P2X receptor [1]: double | signal, % of WT signaling (P2X2 A304F): 57 ± 2.6% | signal, % of WT signaling (P2X2 R302 lysine (R302K)): 43 ± 15%
